The data set can be described thus: Pharmacokinetics of Compound A after single oral administration at 200 mg in fasted and fed dogs. Format: in vivo, male beagle dogs. To be noted: 200 mg oral dose; for AUC(0-t) / Tmax / half-life / Cmax: male, po, 200 mg; for Tmax: median; for half-life: N = 2, poor linear regression; for Cmax: Gelucire 50/13 size 00 hard gelatin capsule, N=3. The procedure: Example 8: Pharmacokinetics of Compound a after Single Oral Administration at 200 Mg in Fasted and Fed Dogs
A pharmacokinetic (PK) study was carried out using a Compound A stearoyl polyoxy-32 glycerides formulation.
A formulation of compound A and stearoyl polyoxy-32 glycerides (Gelucire® 50/13) in size 00 hard gelatin capsules (200 mg dose per capsule), according to Table 3, was administered orally to male beagle dogs (N=3) in a fasted state as well as a fed state.

Setting [1] is: beagle, dog, plasma, fasted male dogs, Gelucire 50/13 hard gelatin capsule.
The mark [2] stands for this setting: beagle, dog, plasma, fed male dogs, Gelucire 50/13 hard gelatin capsule.

Molecules are shown by their SMILES. Read-outs that look alike come from different tables or passages of the source.

What is called AUC(0-inf) is total exposure, with the tail of the curve extrapolated. The term Tmax denotes the time from dosing to the highest level. Usually half-life stands for the time in which the quantity being followed falls by half. Lower therefore signals fast loss. Usually Cmax stands for the peak of the concentration-time curve.

As to `O=C(Nc1ccnc(C(F)(F)F)c1)c1cnn(-c2cccc3c(=O)[nH]ccc23)c1C(F)(F)F` [Compound A, 1-(1-oxo-1,2-dihydroisoquinolin-5-yl)-5-(trifluoromethyl)-N-(2-(trifluoromethyl)pyridin-4-yl)-1H-pyrazole-4-carboxamide], the AUC(0-inf) (beagle, dog, plasma, fasted male dogs, Gelucire 50/13 hard gelatin capsule, mean) stood at 578 µg·h/mL. Besides, for the setting “fed male dogs, fasted group as reference”, the “Fed vs Fasted” value came out at 1.3. For the same compound, the AUC(0-t) was found to be 246 µg·h/mL (beagle, dog, plasma, fasted male dogs, Gelucire 50/13 hard gelatin capsule, mean, read-out: AUC0-24 h); 521 µg·h/mL (beagle, dog, plasma, fasted male dogs, Gelucire 50/13 hard gelatin capsule, mean, read-out: AUC0-96 h); 121 µg·h/mL (beagle, dog, plasma, fed male dogs, Gelucire 50/13 hard gelatin capsule, mean, read-out: AUC0-24 h); 502 µg·h/mL (beagle, dog, plasma, fed male dogs, Gelucire 50/13 hard gelatin capsule, mean, read-out: AUC0-96 h). The Tmax under setting [1] came to 2 h and the Tmax under setting [2] came to 24 h. Also, the half-life is 30 h under setting [1] and 34 h under setting [2]. This compound also gave a Cmax (beagle, dog, plasma, fasted male dogs, mean) of 16000 ng/mL and a Cmax (beagle, dog, plasma, fed male dogs, mean) of 9330 ng/mL.

The record behind these values is patent US20230310413A1, “PHARMACEUTICAL FORMULATIONS COMPRISING A MALT1 INHIBITOR AND A MIXTURE OF POLYETHYLENE GLYCOL WITH A FATTY ACID” (JANSSEN PHARMACEUTICA NV, priority 2020, published 2023).
